According to patent US8940909B2, “Indicator platform” (Biosynth AG, priority 2009, dated 2015):

What was measured:
Test in all cases: IO staining of colonies of beta-D-galactosidase positive/negative bacteria (Table IVb)
Assay type in all cases: cell-based
Citrobacter freundii 181 = settings: Citrobacter freundii strain 181, b-gal +; 24 h on Nutrient Agar, 150 mg/l indicator, 100 mg/l IPTG
[1] = system: Enterobacter aerogenes 242; settings: Enterobacter aerogenes strain 242, b-gal +; 24 h on Nutrient Agar, 150 mg/l indicator, 100 mg/l IPTG; as to C: Color of colonies: key: −: absent; +/−: weak; +: strong; ++: very strong; as to G: Growth of colonies: key: −: absent; +/−: weak; +: strong; ++: very strong
Enterobacter cloacae 245 = settings: Enterobacter cloacae strain 245, b-gal +; 24 h on Nutrient Agar, 150 mg/l indicator, 100 mg/l IPTG
[2] = system: Escherichia coli (O157:H7) 60; settings: Escherichia coli (O157:H7) strain 60, b-gal +; 24 h on Nutrient Agar, 150 mg/l indicator, 100 mg/l IPTG
Escherichia coli 61 = settings: Escherichia coli strain 61, b-gal +; 24 h on Nutrient Agar, 150 mg/l indicator, 100 mg/l IPTG
Escherichia coli 270 = settings: Escherichia coli strain 270, b-gal +; 24 h on Nutrient Agar, 150 mg/l indicator, 100 mg/l IPTG
Serratia marcescens 40 = settings: Serratia marcescens strain 40, b-gal +; 24 h on Nutrient Agar, 150 mg/l indicator, 100 mg/l IPTG
[3] = system: Staphylococcus intermedius 31; settings: Staphylococcus intermedius strain 31, b-gal +; 24 h on Nutrient Agar, 150 mg/l indicator, 100 mg/l IPTG
[4] = system: Staphylococcus saprophyticus 273; settings: Staphylococcus saprophyticus strain 273, b-gal +; 24 h on Nutrient Agar, 150 mg/l indicator, 100 mg/l IPTG; as to G: Growth of colonies: key: −: absent; +/−: weak; +: strong; ++: very strong
Salmonella bongori 81 = settings: Salmonella bongori strain 81, b-gal +; 24 h on Nutrient Agar, 150 mg/l indicator, 100 mg/l IPTG
Salmonella illa 73 = settings: Salmonella illa strain 73, b-gal +; 24 h on Nutrient Agar, 150 mg/l indicator, 100 mg/l IPTG
[5] = system: Shigella dysenteriae Serovar 1 131; settings: Shigella dysenteriae Serovar 1 strain 131, b-gal +/−; 24 h on Nutrient Agar, 150 mg/l indicator, 100 mg/l IPTG
Shigella sonnei 133 = settings: Shigella sonnei strain 133, b-gal +/−; 24 h on Nutrient Agar, 150 mg/l indicator, 100 mg/l IPTG
[6] = system: Yersinia enterocolitica 175; settings: Yersinia enterocolitica strain 175, b-gal +/−; 24 h on Nutrient Agar, 150 mg/l indicator, 100 mg/l IPTG; as to G: Growth of colonies: key: −: absent; +/−: weak; +: strong; ++: very strong
[7] = system: Salmonella enteritidis 43; settings: Salmonella enteritidis strain 43, b-gal −; 24 h on Nutrient Agar, 150 mg/l indicator, 100 mg/l IPTG; also: key: −: absent; +/−: weak; +: strong; ++: very strong
Bacillus subtilis 65 = settings: Bacillus subtilis strain 65, b-gal −; 24 h on Nutrient Agar, 150 mg/l indicator, 100 mg/l IPTG
[8] = system: Listeria monocytogenes (4b) 290; settings: Listeria monocytogenes (4b) strain 290, b-gal −; 24 h on Nutrient Agar, 150 mg/l indicator, 100 mg/l IPTG; as to C: Color of colonies: key: −: absent; +/−: weak; +: strong; ++: very strong; as to F: Fluorescence of colonies: key: −: absent; +/−: weak; +: strong; ++: very strong
[9] = system: Pseudomonas aeruginosa 168; settings: Pseudomonas aeruginosa strain 168, b-gal −, 24 h on Nutrient Agar, 150 mg/l indicator, 100 mg/l IPTG; as to C: Color of colonies: key: −: absent; +/−: weak; +: strong; ++: very strong; as to G: Growth of colonies: key: −: absent; +/−: weak; +: strong; ++: very strong
Shigella boydii 135 = settings: Shigella boydii strain 135, b-gal −; 24 h on Nutrient Agar, 150 mg/l indicator, 100 mg/l IPTG
Staphylococcus aureus 2 = settings: Staphylococcus aureus strain 2, b-gal −, 24 h on Nutrient Agar, 150 mg/l indicator, 100 mg/l IPTG
[10] = system: Streptococcus agalactiae 195; settings: Streptococcus agalactiae strain 195, b-gal −; 24 h on Nutrient Agar, 150 mg/l indicator, 100 mg/l IPTG; as to C: Color of colonies: key: −: absent; +/−: weak; +: strong; ++: very strong; as to F: Fluorescence of colonies: key: −: absent; +/−: weak; +: strong; ++: very strong

COc1ccc(C(=O)c2ccccc2-n2cc(O[C@@H]3O[C@H](CO)[C@H](O)[C@H](O)[C@H]3O)c3c(Cl)c(Br)ccc32)c(OC)c1 [Indicator I28a, 5-Bromo-4-chloro-1-[2-(2,4-dimethoxybenzoyl)phenyl]-1H-indol-3-yl-beta-D-galactopyranoside]
C: Color of colonies (Citrobacter freundii 181): +
F: Fluorescence of colonies (Citrobacter freundii 181): +/−
G: Growth of colonies (Citrobacter freundii 181): +
C: Color of colonies [1]: +
F: Fluorescence of colonies [1]: +/−
G: Growth of colonies [1]: +
C: Color of colonies (Enterobacter cloacae 245): +
F: Fluorescence of colonies (Enterobacter cloacae 245): +/−
G: Growth of colonies (Enterobacter cloacae 245): +
C: Color of colonies [2]: +
F: Fluorescence of colonies [2]: +/−
G: Growth of colonies [2]: +
C: Color of colonies (Escherichia coli 61): +
F: Fluorescence of colonies (Escherichia coli 61): +/−
G: Growth of colonies (Escherichia coli 61): +
C: Color of colonies (Escherichia coli 270): ++
F: Fluorescence of colonies (Escherichia coli 270): +/−
G: Growth of colonies (Escherichia coli 270): +
C: Color of colonies (Serratia marcescens 40): +/−
F: Fluorescence of colonies (Serratia marcescens 40): −
G: Growth of colonies (Serratia marcescens 40): +
C: Color of colonies [3]: +
F: Fluorescence of colonies [3]: +/−
G: Growth of colonies [3]: +
C: Color of colonies [4]: +/−
F: Fluorescence of colonies [4]: −
G: Growth of colonies [4]: +
C: Color of colonies (Salmonella bongori 81): +/−
F: Fluorescence of colonies (Salmonella bongori 81): −
G: Growth of colonies (Salmonella bongori 81): +
C: Color of colonies (Salmonella illa 73): −
F: Fluorescence of colonies (Salmonella illa 73): −
G: Growth of colonies (Salmonella illa 73): +
C: Color of colonies [5]: −
F: Fluorescence of colonies [5]: −
G: Growth of colonies [5]: +
C: Color of colonies (Shigella sonnei 133): +
F: Fluorescence of colonies (Shigella sonnei 133): +/−
G: Growth of colonies (Shigella sonnei 133): +
C: Color of colonies [6]: −
F: Fluorescence of colonies [6]: −
G: Growth of colonies [6]: +
C: Color of colonies [7]: −
F: Fluorescence of colonies [7]: −
G: Growth of colonies [7]: +
C: Color of colonies (Bacillus subtilis 65): −
F: Fluorescence of colonies (Bacillus subtilis 65): −
G: Growth of colonies (Bacillus subtilis 65): +/−
C: Color of colonies [8]: −
F: Fluorescence of colonies [8]: −
G: Growth of colonies [8]: +/−
C: Color of colonies [9]: −
G: Growth of colonies [9]: +
F: Fluorescence of colonies ([9]; footnote 1: blue autofluorescence): +^1
C: Color of colonies (Shigella boydii 135): −
F: Fluorescence of colonies (Shigella boydii 135): −
G: Growth of colonies (Shigella boydii 135): +
F: Fluorescence of colonies (Staphylococcus aureus 2): −
G: Growth of colonies (Staphylococcus aureus 2): +/−
C: Color of colonies (Staphylococcus aureus 2; footnote 2: S. aureus natural color): −
C: Color of colonies [10]: −
F: Fluorescence of colonies [10]: −
G: Growth of colonies [10]: +/−
